As a reminder, the IC50 is the concentration that gives 50% inhibition. Lower therefore signals higher potency.

The values that follow come from patent publication US9556170B2, “Substituted-1H-benzo[d]imidazole series compounds as lysine-specific demethylase 1 (LSD1) inhibitors” (University of Utah, priority 2013, dated 2017).

In this assay the target is LSD1 (Homo sapiens (Human), UniProt O60341). In words: LSD1 histone demethylase assay (LSD1 Inhibitor Screening Assay Kit, Cayman Chemical). The class given is biochemical. The settings on record: H2O2/resorufin fluorescence readout, dimethyl K4 H3 peptide substrate. As for the experimental part: Recombinant (expressed in baculovirus infected BTI insect cells) monoamine oxidase A and monoamine oxidase B (Catalog No. M7316 and M7441, respectively) were purchased from Sigma-Aldrich Co. LLC. (St. Louis, Mo.). MAO-Glo™ Assay Kit was purchased from Promega Corporation (Madison, Wis.). ATPlite™ Luminescence Assay System (e.g. Catalog No. V1401) was purchased from PerkinElmer Inc. (Waltham, Mass.).
IC50 values are determined using GraphPad Prism 5 software. The data were entered as an X-Y plot into the software as percent inhibition for each concentration of the drug. The concentration values of the drug were log transformed and the nonlinear regression was carried out using the “sigmoidal dose-response (variable slope)” option within the GraphPad software to model the data and calculate IC50 values.

`CN1CCN(S(=O)(=O)c2ccc3[nH]c(Nc4cc(Cl)ccc4O)nc3c2)CC1` [Compound 2, 4-chloro-2-((5-((4-methylpiperazin-1-yl)sulfonyl)-1H-benzo[d]imidazol-2-yl)amino)phenol] gave an IC50 of 0.273 µM.

`O=S(=O)(c1ccc2[nH]c(Nc3cc(Cl)ccc3O)nc2c1)N1CCNCC1` [Compound 3] displayed an IC50 of 0.081 µM.
